# How the values were obtained:
# Test in all cases: In vitro MIC, two-fold dilution in microtiter
# Type in all cases: cell-based
# [1] = tested on: Escherichia coli SKF 12140; settings: 18-24 h at 37° C., inoculum about 10^4 CFU/ml
# Experimental: (§1) Broth cultures are diluted enough so that the final inecuium is about 10^4 colony forming units/ml (CFU/ml).
# [2] = tested on: Proteus vulgaris X19H ATCC 881; settings: 18-24 h at 37° C., inoculum about 10^4 CFU/ml
# Experimental: as §1
# [3] = tested on: Pseudomonas aeruginosa ATCC 10145; settings: for MIC Pseudomonas aeruginosa ATCC 10145: 18-24 h at 37° C., inoculum about 10^4 CFU/ml
# Experimental: as §1
# [4] = tested on: Staphylococcus aureus TOUR; settings: 18-24 h at 37° C., inoculum about 10^4 CFU/ml
# Experimental: as §1
# [5] = tested on: Staphylococcus epidermidis ATCC 12228; settings: 18-24 h at 37° C., inoculum about 10^4 CFU/ml
# Experimental: as §1
# [6] = tested on: Staphylococcus haemolyticus L 602; settings: 18-24 h at 37° C., inoculum about 10^4 CFU/ml
# Experimental: as §1
# [7] = tested on: Streptococcus faecalis ATCC 7080; settings: 18-24 h at 37° C., inoculum about 10^4 CFU/ml
# Experimental: as §1
# [8] = tested on: Streptococcus pneumoniae UC 41; settings: 18-24 h at 37° C., inoculum about 10^4 CFU/ml
# Experimental: as §1
# [9] = tested on: Streptococcus pyogenes C 203; settings: 18-24 h at 37° C., inoculum about 10^4 CFU/ml
# Experimental: as §1
Compound,MIC Escherichia coli SKF 12140 [1] [microgram/ml],MIC Proteus vulgaris X19H ATCC 881 [2] [microgram/ml],MIC Pseudomonas aeruginosa ATCC 10145 [3] [microgram/ml],MIC Staphylococcus aureus TOUR [4] [microgram/ml],MIC Staphylococcus epidermidis ATCC 12228 [5] [microgram/ml],MIC Staphylococcus haemolyticus L 602 [6] [microgram/ml],MIC Streptococcus faecalis ATCC 7080 [7] [microgram/ml],MIC Streptococcus pneumoniae UC 41 [8] [microgram/ml],MIC Streptococcus pyogenes C 203 [9] [microgram/ml],"MIC against Pseudomonas aeruginosa (comparison compounds) ([3]; strain not specified (""the same microorganism"")) [microgram/ml]"
NCCCNCCCCCCCCCNCCCNC(=O)C1NC(=O)C2NC(=O)C(NC(=O)C3NC(=O)C4NC(=O)C(Cc5ccc(c(Cl)c5)Oc5cc3cc(c5O)Oc3ccc(cc3Cl)C2O)NC(=O)C(N)c2ccc(O)c(c2)Oc2cc(O)cc4c2)c2ccc(O)c(c2)-c2c(O)cc(O)cc21 (stereo not shown) [Compound 54],> 128,> 128,128,0.5,0.12,2,2,0.12,0.03,
CC(=O)N[C@H]1[C@H](OC2c3ccc(c(Cl)c3)Oc3cc4cc(c3O)Oc3ccc(cc3Cl)CC3NC(=O)C(N)c5ccc(O)c(c5)Oc5cc(O)cc(c5)C(NC3=O)C(=O)NC4C(=O)NC3C(=O)NC2C(=O)NC(C(=O)NCCCNCCCCNCCCN)c2cc(O)cc(O[C@H]4O[C@H](CO)[C@@H](O)[C@H](O)[C@@H]4O)c2-c2cc3ccc2O)O[C@H](CO)[C@@H](O)[C@@H]1O (stereo partly shown) [Compound 39],32,> 128,128,0.25,0.06,0.12,0.5,0.5,0.12,
NCCCNCCCCCCCCCCNCCCNC(=O)C1NC(=O)C2NC(=O)C(NC(=O)C3NC(=O)C4NC(=O)C(Cc5ccc(c(Cl)c5)Oc5cc3cc(c5O)Oc3ccc(cc3Cl)C2O)NC(=O)C(N)c2ccc(O)c(c2)Oc2cc(O)cc4c2)c2ccc(O)c(c2)-c2c(O)cc(O)cc21 (stereo not shown) [Compound 55],> 128,> 128,> 128,1,0.12,1,1,0.12,0.12,
CN(C)CCCN1CCN(C(=O)C2NC(=O)C3NC(=O)C(NC(=O)C4NC(=O)C5NC(=O)C(Cc6ccc(c(Cl)c6)Oc6cc4cc(c6O)Oc4ccc(cc4Cl)C3O)NC(=O)C(N)c3ccc(O)c(c3)Oc3cc(O)cc5c3)c3ccc(O)c(c3)-c3c(O)cc(O)cc32)CC1 (stereo not shown) [Compound 53],8,128,32,0.06,0.06,0.06,0.12,0.12,0.06,
NCCNCCCNCCNC(=O)C1NC(=O)C2NC(=O)C(NC(=O)C3NC(=O)C4NC(=O)C(Cc5ccc(c(Cl)c5)Oc5cc3cc(c5O)Oc3ccc(cc3Cl)C2O)NC(=O)C(N)c2ccc(O)c(c2)Oc2cc(O)cc4c2)c2ccc(O)c(c2)-c2c(O)cc(O)cc21 (stereo not shown) [Compound 24],4,128,64,0.06,0.06,0.06,0.12,0.12,0.06,
CCN(CC)CCN(CCCN)CCCNC(=O)C1NC(=O)C2NC(=O)C(NC(=O)C3NC(=O)C4NC(=O)C(Cc5ccc(c(Cl)c5)Oc5cc3cc(c5O)Oc3ccc(cc3Cl)C2O)NC(=O)C(N)c2ccc(O)c(c2)Oc2cc(O)cc4c2)c2ccc(O)c(c2)-c2c(O)cc(O)cc21 (stereo not shown) [Compound 52],32,> 128,128,0.12,0.03,0.12,0.12,0.12,0.12,
NCCNCCNC(=O)C1NC(=O)C2NC(=O)C(NC(=O)C3NC(=O)C4NC(=O)C(Cc5ccc(c(Cl)c5)Oc5cc3cc(c5O)Oc3ccc(cc3Cl)C2O)NC(=O)C(N)c2ccc(O)c(c2)Oc2cc(O)cc4c2)c2ccc(O)c(c2)-c2c(O)cc(O)cc21 (stereo not shown) [Compound 21],8,64,64,0.06,0.06,0.12,0.12,0.12,0.12,
CC(=O)N[C@H]1[C@H](OC2c3ccc(c(Cl)c3)Oc3cc4cc(c3O)Oc3ccc(cc3Cl)CC3NC(=O)C(N)c5ccc(O)c(c5)Oc5cc(O)cc(c5)C(NC3=O)C(=O)NC4C(=O)NC3C(=O)NC2C(=O)NC(C(=O)NCCCNCCCCNCCCN)c2cc(O)cc(O)c2-c2cc3ccc2O)O[C@H](CO)[C@@H](O)[C@@H]1O (stereo partly shown) [Compound 44],4,128,16,0.12,0.06,0.06,0.25,0.25,0.06,
NCCCN1CCN(CCCNC(=O)C2NC(=O)C3NC(=O)C(NC(=O)C4NC(=O)C5NC(=O)C(Cc6ccc(c(Cl)c6)Oc6cc4cc(c6O)Oc4ccc(cc4Cl)C3O)NC(=O)C(N)c3ccc(O)c(c3)Oc3cc(O)cc5c3)c3ccc(O)c(c3)-c3c(O)cc(O)cc32)CC1 (stereo not shown) [Compound 30],4,128,16,0.06,0.06,0.12,0.12,0.12,0.06,
CN(C)CCCN(CCCN)CCCNC(=O)C1NC(=O)C2NC(=O)C(NC(=O)C3NC(=O)C4NC(=O)C(Cc5ccc(c(Cl)c5)Oc5cc3cc(c5O)Oc3ccc(cc3Cl)C2O)NC(=O)C(N)c2ccc(O)c(c2)Oc2cc(O)cc4c2)c2ccc(O)c(c2)-c2c(O)cc(O)cc21 (stereo not shown) [Compound 51],8,128,32,0.12,0.06,0.12,0.25,0.12,0.06,
teicoplanin [reference compound],,,,,,,,,,≥ 32
